From patent EP4775568A1, “NOVEL COMPOUND AND USE THEREOF FOR TREATING PSORIASIS” (Gwangju Institute of Science and Technology, priority 2023, dated 2025)

Target: T1, CMKLR1 (Homo sapiens, UniProt Q99788)
T1 construct: expressed in transfected cells; host or cells: CHO-K1 cells expressing Gα-16 (CHO-Ga16-CMKLR1)
T1 sequence (Q99788 1-373): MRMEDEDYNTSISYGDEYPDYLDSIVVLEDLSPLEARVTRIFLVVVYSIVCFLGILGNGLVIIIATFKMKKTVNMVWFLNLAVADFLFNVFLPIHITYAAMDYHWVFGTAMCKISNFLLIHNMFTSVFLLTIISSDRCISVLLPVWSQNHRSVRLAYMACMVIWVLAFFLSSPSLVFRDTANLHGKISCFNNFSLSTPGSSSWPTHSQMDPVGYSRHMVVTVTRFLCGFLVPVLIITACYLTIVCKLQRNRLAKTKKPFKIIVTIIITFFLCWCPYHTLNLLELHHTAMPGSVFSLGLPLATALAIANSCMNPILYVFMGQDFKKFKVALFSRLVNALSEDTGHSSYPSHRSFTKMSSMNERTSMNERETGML
Test: Calcium mobilization assay (CHO-Ga16-CMKLR1 cells, chemerin-9 induced signal)
Assay type: cell-based
Conditions: for IC50: calcium signal induced by 2.5 nM chemerin-9
Procedure: To establish a CMKLR1 calcium mobilization cell evaluation system, CHO-K1 cells expressing Gα-16 were transfected with pcDNA3.1-derived human CMKLR1-expressing plasmids using Lipofectamine 2000 (Invitrogen, Waltham, Massachusetts, USA). […] The established cell line (CHO-Ga16-CMKLR1) was cultured in F-12 medium (Invitrogen) supplemented with 10% (v/v) fetal bovine serum (FBS; Invitrogen), 0.5 mg/mL geneticin, 0.2 mg/mL hygromycin B (Clontech), and 1% (v/v) antibiotic-antimycotic solution (Invitrogen) under 5% CO2 at 37°C.
100 µL/well was added to a 96-well plate (Corning) and incubated for 24 h. The buffer solution was prepared by adding 1 M HEPES solution to Hanks' Balanced Salt Solution (HBSS) (Invitrogen) and adjusting the pH to 7.4 by dropwise addition of 1 M NaOH.
The fluorescent dye solution was prepared using the buffer provided with the Calcium 5 Assay Kit (Molecular Devices). 40 µL/well of dye solution was added to each well and incubated at 37°C in a 5% CO2 atmosphere for 30 min. […] The final DMSO concentration was adjusted to 2%. 40 µL of each compound solution was added to the well and incubated for 30 min. […] Prism 5 software (GraphPad) was then used to obtain IC50 values for various compounds. IC50 values were derived based on concentration-response curves, and all experiments were repeated at least three times.

IC50 (Table 2, IC50 class) [µM] | IC50 (Table 4, IC50 class) [µM] | SMILES | further results
0.1 to 1 |  | CC(CC(=O)O)c1ccc(OCc2ccc3c(-c4cc(Cl)c(O)c(Cl)c4)nn(C4CCCC4)c3c2)cc1 (centres unmarked) [Compound 20, 3-(4-((1-cyclopentyl-3-(3,5-dichloro-4-hydroxyphenyl)-1H-indazol-6-yl)methoxy)phenyl)butanoic acid] | 
 |  | CCC(CC(=O)O)c1ccc(OCc2ccc3c(-c4ccccc4)nn(C(C)C)c3c2)cc1 (centres unmarked) [Compound 9, 3-(4-((1-isopropyl-3-phenyl-1H-indazol-6-yl)methoxy)phenyl)pentanoic acid] | inhibition at 10 µM (read-out: CMKLR1 activity in CHO cells (% inhibition at 10 µM), 10 µM compound, relative to calcium signal induced by 2.5 nM chemerin-9): 81%
 | < 0.1 | C[C@@H](CC(=O)O)c1ccc(OCc2cc(F)c3c(-c4cc(Cl)c(O)c(Cl)c4)nn(C4CCCC4)c3c2)cc1 [Compound 69, (S)-3-(4-((1-cyclopentyl-3-(3,5-dichloro-4-hydroxyphenyl)-4-fluoro-1H-indazol-6-yl)methoxy)phenyl)butanoic acid] | 
> 1 |  | CC(CC(=O)O)c1ccc(OCc2ccc3c(-c4cc(C(F)(F)F)cc(C(F)(F)F)c4)nn(C4CCCC4)c3c2)cc1 (centres unmarked) [Compound 22, 3-(4-((3-(3,5-bis(trifluoromethyl)phenyl)-1-cyclopentyl-1H-indazol-6-yl)methoxy)phenyl)butanoic acid] | 
 | > 1 | CC(=O)Nc1ccc(-c2nn(C3CCCC3)c3cc(COc4ccc(C(C)CC(=O)O)cc4)ccc23)cc1 (centres unmarked) [Compound 60, 3-(4-((3-(4-acetamidophenyl)-1-cyclopentyl-1H-indazol-6-yl)methoxy)phenyl)butanoic acid] | 
